Cc1ccccc1S(N)(=O)=O
Settings | solubility (mole fraction)
in acetone, 273.15 K | 0.0728
in acetone, 279.15 K | 0.0787
in acetone, 283.75 K | 0.0844
in acetone, 289.15 K | 0.091
in acetone, 298.95 K | 0.105
in acetone, 303.25 K | 0.113
in acetone, 308.65 K | 0.124
in acetone, 313.15 K | 0.134
in acetone, 318.15 K | 0.146
in acetone, 323.15 K | 0.158
in acetonitrile, 273.15 K | 0.0167
in acetonitrile, 279.15 K | 0.0196
in acetonitrile, 283.95 K | 0.022
in acetonitrile, 293.35 K | 0.0297
in acetonitrile, 298.95 K | 0.0347
in acetonitrile, 303.25 K | 0.0401
in acetonitrile, 308.95 K | 0.0476
in acetonitrile, 313.15 K | 0.0533
in acetonitrile, 319.15 K | 0.0634
in acetonitrile, 323.85 K | 0.0723
in cyclohexanone, 273.15 K | 0.0803
in cyclohexanone, 279.15 K | 0.0861
in cyclohexanone, 283.95 K | 0.0927
in cyclohexanone, 289.15 K | 0.0992
in cyclohexanone, 293.35 K | 0.105
in cyclohexanone, 298.95 K | 0.114
in cyclohexanone, 303.25 K | 0.122
in cyclohexanone, 308.95 K | 0.133
in cyclohexanone, 313.15 K | 0.143
in cyclohexanone, 319.15 K | 0.156
in cyclohexanone, 323.85 K | 0.168
in cyclopentanone, 273.15 K | 0.098
in cyclopentanone, 279.15 K | 0.104
in cyclopentanone, 283.95 K | 0.111
in cyclopentanone, 289.15 K | 0.118
in cyclopentanone, 293.35 K | 0.124
in cyclopentanone, 298.95 K | 0.133
in cyclopentanone, 303.25 K | 0.142
in cyclopentanone, 308.95 K | 0.152
in cyclopentanone, 313.15 K | 0.16
in cyclopentanone, 319.15 K | 0.175
in cyclopentanone, 323.85 K | 0.187
in dichloromethane, 273.15 K | 0.00161
in dichloromethane, 279.15 K | 0.00199
in dichloromethane, 283.95 K | 0.00233
in dichloromethane, 289.15 K | 0.00304
in dichloromethane, 293.35 K | 0.00365
in dichloromethane, 298.95 K | 0.00463
in dichloromethane, 303.25 K | 0.00547
in dichloromethane, 308.95 K | 0.00697
in dichloromethane, 312.15 K | 0.00785
in ethanol, 273.15 K | 0.00764
in ethanol, 279.15 K | 0.00971
in ethanol, 283.75 K | 0.0116
in ethanol, 289.15 K | 0.0147
in ethanol, 298.95 K | 0.0196
in ethanol, 303.25 K | 0.0226
in ethanol, 308.65 K | 0.0275
in ethanol, 313.15 K | 0.0315
in ethanol, 318.15 K | 0.0374
in ethanol, 323.15 K | 0.0439
in ethyl acetate, 273.15 K | 0.0221
in ethyl acetate, 279.15 K | 0.0248
in ethyl acetate, 283.75 K | 0.0278
in ethyl acetate, 289.15 K | 0.0307
in ethyl acetate, 298.95 K | 0.0377
in ethyl acetate, 303.25 K | 0.0416
in ethyl acetate, 308.65 K | 0.0471
in ethyl acetate, 313.15 K | 0.0518
in ethyl acetate, 318.15 K | 0.0578
in ethyl acetate, 323.15 K | 0.0643
in ethyl formate, 273.15 K | 0.013
in ethyl formate, 279.15 K | 0.0146
in ethyl formate, 283.95 K | 0.0165
in ethyl formate, 289.15 K | 0.0185
in ethyl formate, 293.35 K | 0.0207
in ethyl formate, 298.95 K | 0.0239
in ethyl formate, 303.25 K | 0.0273
in ethyl formate, 308.95 K | 0.0316
in ethyl formate, 313.15 K | 0.0354
in ethyl formate, 319.15 K | 0.0408
in ethyl formate, 323.85 K | 0.0461
in isobutanol, 273.15 K | 0.00205
in isobutanol, 279.15 K | 0.00284
in isobutanol, 283.75 K | 0.00363
in isobutanol, 289.15 K | 0.00476
in isobutanol, 298.95 K | 0.00768
in isobutanol, 303.25 K | 0.00934
in isobutanol, 308.65 K | 0.012
in isobutanol, 313.15 K | 0.0144
in isobutanol, 318.15 K | 0.0178
in isobutanol, 323.15 K | 0.0215
in isopentanol, 273.15 K | 0.00248
in isopentanol, 279.15 K | 0.00333
in isopentanol, 283.95 K | 0.00419
in isopentanol, 289.15 K | 0.00534
in isopentanol, 293.35 K | 0.00642
in isopentanol, 298.95 K | 0.00805
in isopentanol, 303.25 K | 0.00978
in isopentanol, 308.95 K | 0.0125
in isopentanol, 313.15 K | 0.0144
in isopentanol, 319.15 K | 0.0183
in isopentanol, 323.85 K | 0.0214
in isopropanol, 273.15 K | 0.00343
in isopropanol, 279.15 K | 0.00464
in isopropanol, 283.75 K | 0.00581
in isopropanol, 289.15 K | 0.00756
in isopropanol, 298.95 K | 0.0115
in isopropanol, 303.25 K | 0.0137
in isopropanol, 308.65 K | 0.0175
in isopropanol, 313.15 K | 0.0208
in isopropanol, 318.15 K | 0.0252
in isopropanol, 323.15 K | 0.0304
in methanol, 273.15 K | 0.0128
in methanol, 279.15 K | 0.016
in methanol, 283.75 K | 0.0189
in methanol, 289.15 K | 0.0233
in methanol, 298.95 K | 0.0311
in methanol, 303.25 K | 0.0355
in methanol, 308.65 K | 0.0422
in methanol, 313.15 K | 0.0489
in methanol, 318.15 K | 0.0567
in methanol, 323.15 K | 0.0658
in methyl acetate, 273.15 K | 0.027
in methyl acetate, 279.15 K | 0.0303
in methyl acetate, 283.95 K | 0.0337
in methyl acetate, 289.15 K | 0.0374
in methyl acetate, 293.35 K | 0.0405
in methyl acetate, 298.95 K | 0.046
in methyl acetate, 303.25 K | 0.0513
in methyl acetate, 308.95 K | 0.058
in methyl acetate, 313.15 K | 0.0637
in methyl acetate, 319.15 K | 0.0731
in methyl acetate, 323.85 K | 0.0809
in n-butanol, 273.15 K | 0.00341
in n-butanol, 279.15 K | 0.00451
in n-butanol, 283.75 K | 0.00556
in n-butanol, 289.15 K | 0.00731
in n-butanol, 298.95 K | 0.0104
in n-butanol, 303.25 K | 0.0123
in n-butanol, 308.65 K | 0.0154
in n-butanol, 313.15 K | 0.0181
in n-butanol, 318.15 K | 0.0218
in n-butanol, 323.15 K | 0.0262
in n-pentanol, 273.15 K | 0.0027
in n-pentanol, 279.15 K | 0.00363
in n-pentanol, 283.95 K | 0.00456
in n-pentanol, 289.15 K | 0.00568
in n-pentanol, 293.35 K | 0.00705
in n-pentanol, 298.95 K | 0.00875
in n-pentanol, 303.25 K | 0.0108
in n-pentanol, 308.95 K | 0.0134
in n-pentanol, 313.15 K | 0.0158
in n-pentanol, 319.15 K | 0.0195
in n-pentanol, 323.85 K | 0.023
in n-propanol, 273.15 K | 0.00418
in n-propanol, 279.15 K | 0.0055
in n-propanol, 283.75 K | 0.00674
in n-propanol, 289.15 K | 0.00847
in n-propanol, 298.95 K | 0.0126
in n-propanol, 303.25 K | 0.0148
in n-propanol, 308.65 K | 0.0182
in n-propanol, 313.15 K | 0.0215
in n-propanol, 318.15 K | 0.0257
in n-propanol, 323.15 K | 0.03
